In the experiment the target is Mcl-1 protein (UniProtKB Q07820) (Homo sapiens (Human), UniProt Q07820). The experiment is described as follows: Inhibition of Mcl-1 by the fluorescence polarisation assay (Example A, Method A). The format is binding. To be noted: fluorescence polarization assay. An outline of the steps:
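Protein (5 nM) and fluorescein-tagged peptide tracer (1 nM) incubated with 11-point compound series for 2 h at room temperature in HEPES/NaCl/Tween 20 buffer, pH 7.4, 5% DMSO. Displacement read as decrease in polarisation; IC50 fitted by 4-parameter logistic, converted to Ki (cKi or eKi).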
Mcl-1 protein, sequence (Q07820 whole entry): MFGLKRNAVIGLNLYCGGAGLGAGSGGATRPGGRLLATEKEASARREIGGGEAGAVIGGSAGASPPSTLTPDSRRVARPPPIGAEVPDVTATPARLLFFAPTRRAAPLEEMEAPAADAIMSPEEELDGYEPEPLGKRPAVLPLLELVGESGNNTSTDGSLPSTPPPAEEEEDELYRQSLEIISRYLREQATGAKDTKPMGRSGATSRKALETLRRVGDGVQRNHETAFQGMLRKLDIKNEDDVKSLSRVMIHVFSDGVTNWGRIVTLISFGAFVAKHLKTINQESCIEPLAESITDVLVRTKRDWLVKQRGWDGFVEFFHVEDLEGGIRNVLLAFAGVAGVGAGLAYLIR
Take `COCC(F)(F)CC1Cc2ccccc2[C@]12CC[C@@](Nc1cccc(Cl)c1)(C(=O)O)CC2` (stereo partly drawn) [Example 502, (1r,4r)-4-(3-chloroanilino)-2′-(2,2-difluoro-3-methoxypropyl)-2′,3′-dihydrospiro[cyclohexane-1,1′-indene]-4-carboxylic acid]: the Ki is 77800 nM. The result for `CN1c2ccc(/C=C/c3ccccc3)cc2[C@]2(CC[C@](Nc3cccc(Br)c3)(C(=O)O)CC2)C1=O` [Example 9, (1r,4r)-4-(3-bromoanilino)-1′-methyl-2′-oxo-5′-[(E)-2-phenylethenyl]-1′,2′-dihydrospiro[cyclohexane-1,3′-indole]-4-carboxylic acid] reads 4820 nM; that for `O=C(O)[C@]1(Nc2cccc(Cl)c2)CC[C@]2(CC1)C(C1CN(Cc3c(F)ccc(F)c3F)C1)=Cc1ccccc12` [Example 99, (1r,4r)-4-(3-chloroanilino)-2′-{1-[(2,3,6-trifluorophenyl)methyl]azetidin-3-yl}spiro[cyclohexane-1,1′-indene]-4-carboxylic acid], 2860 nM. With `CCOC/C=C/C1=Cc2ccccc2[C@]12CC[C@@](Nc1cccc(Cl)c1)(C(=O)O)CC2` [Example 154, (1r,4r)-4-(3-chloroanilino)-2′-[(1E)-3-ethoxyprop-1-en-1-yl]spiro[cyclohexane-1,1′-indene]-4-carboxylic acid] the figure was 162 nM; with `O=C(O)[C@]1(Nc2cccc(Cl)c2)CC[C@]2(CC1)C(Br)=Cc1c(Cl)cccc12` [Example 137, (1s,4s)-2′-bromo-4′-chloro-4-(3-chloroanilino)spiro[cyclohexane-1,1′-indene]-4-carboxylic acid], 192 nM; with `O=C(O)[C@]1(Nc2cccc(Cl)c2)CC[C@@]2(CC1)c1ccccc1CC2CCCOc1ccnc2c1CCCC2F` (stereo partly drawn) [Example 473, (1r,4r)-4-(3-chloroanilino)-2′-{3-[(8-fluoro-5,6,7,8-tetrahydroquinolin-4-yl)oxy]propyl}-2′,3′-dihydrospiro[cyclohexane-1,1′-indene]-4-carboxylic acid], 81.9 nM. As for `O=C(O)[C@]1(Nc2cccc(Cl)c2)CC[C@@]2(CC1)c1ccccc1C[C@H]2c1cccc(Cc2ccccc2)c1` [Example 325, (1r,2′S,4S)-2′-(3-benzylphenyl)-4-(3-chloroanilino)-2′,3′-dihydrospiro[cyclohexane-1,1′-indene]-4-carboxylic acid], the inhibition constant (Ki) is 289 nM. With `COc1cccc(N2Cc3ccccc3[C@]23CC[C@](Nc2cccc(Br)c2)(C(=O)O)CC3)c1` [Example 31, (1r,4r)-4-(3-bromoanilino)-2′-(3-methoxyphenyl)-2′,3′-dihydrospiro[cyclohexane-1,1′-isoindole]-4-carboxylic acid] the figure was 36300 nM; with `O=C(O)[C@]1(Nc2cccc(Cl)c2)CC[C@@]2(CC1)c1ccccc1CC2CCCC1CCCC1` (stereo partly drawn) [Example 153, (1r,4r)-4-(3-chloroanilino)-2′-(3-cyclopentylpropyl)-2′,3′-dihydrospiro[cyclohexane-1,1′-indene]-4-carboxylic acid], 507 nM; with `O=C(O)[C@]1(Nc2cccc(Cl)c2)CC[C@]2(CC1)C(c1cc3ccccc3o1)=Cc1ccccc12` [Example 303, (1s,4s)-2′-(1-benzofuran-2-yl)-4-(3-chloroanilino)spiro[cyclohexane-1,1′-indene]-4-carboxylic acid], 2260 nM.

Consider `COc1cccc(C2Cc3ccccc3[C@]23CC[C@@](Nc2cccc(Cl)c2)(C(=O)O)CC3)c1C` (single isomer, unassigned) [Example 322, (1r,4r)-4-(3-chloroanilino)-2′-(3-methoxy-2-methylphenyl)-2′,3′-dihydrospiro[cyclohexane-1,1′-indene]-4-carboxylic acid], for which the Ki is 17700 nM.

As to `O=C(O)[C@]1(Nc2cccc(Cl)c2)CC[C@@]2(CC1)c1ccccc1CC2CCCOc1cncnc1` (stereo partly drawn) [Example 450, (1r,4r)-4-(3-chloroanilino)-2′-{3-[(pyrimidin-5-yl)oxy]propyl}-2′,3′-dihydrospiro[cyclohexane-1,1′-indene]-4-carboxylic acid], the inhibition constant (Ki) was found to be 781 nM.

Take `COc1cc2c(cc1OC)[C@]1(CC[C@@](Nc3cccc(Cl)c3)(C(=O)O)CC1)C(Br)=C2` [Example 136, (1s,4s)-2′-bromo-4-(3-chloroanilino)-5′,6′-dimethoxyspiro[cyclohexane-1,1′-indene]-4-carboxylic acid]: the Ki was determined as 259 nM. Take `O=C(O)[C@]1(Nc2cccc(Cl)c2)CC[C@]2(CC1)C(COCCc1ccc(Cl)cc1)=Cc1ccccc12` [Example 420, (1s,4s)-4-(3-chloroanilino)-2′-{[2-(4-chlorophenyl)ethoxy]methyl}spiro[cyclohexane-1,1′-indene]-4-carboxylic acid]: the inhibition constant (Ki) amounted to 1100 nM. Turning to `CC[C@H](COc1ccccc1)C[C@H]1Cc2ccccc2[C@]12CC[C@@](Nc1cccc(Cl)c1)(C(=O)O)CC2` [Example 541, (1r,2′S,4S)-4-(3-chloroanilino)-2′-[(2S)-2-(phenoxymethyl)butyl]-2′,3′-dihydrospiro[cyclohexane-1,1′-indene]-4-carboxylic acid], the Ki turned out to be 1170 nM. `O=C(O)[C@]1(Nc2cccc(Cl)c2)CC[C@@]2(CC1)C(Br)=Cc1ccccc12` [Example 74, (1r,4r)-2′-bromo-4-(3-chloroanilino)spiro[cyclohexane-1,1′-indene]-4-carboxylic acid]: the Ki is 23100 nM. Consider `C#Cc1ccc2c(c1)[C@]1(CC[C@](Nc3cccc(Br)c3)(C(=O)O)CC1)C(=O)N2C` [Example 18, (1r,4r)-4-(3-bromoanilino)-5′-ethynyl-1′-methyl-2′-oxo-1′,2′-dihydrospiro[cyclohexane-1,3′-indole]-4-carboxylic acid], for which the inhibition constant (Ki) was found to be 31900 nM. The result for `COc1ccc2c(c1)[C@]1(CC[C@@](Nc3cccc(Br)c3)(C(=O)O)CC1)C1(CCCC1)C2` [Example 95, (1r,4r)-4-(3-bromoanilino)-6′-methoxy-3′H-dispiro[cyclohexane-1,1′-indene-2′,1″-cyclopentane]-4-carboxylic acid] reads 1190 nM. The result for `COc1cc(Cl)cc(C2Cc3ccccc3[C@]23CC[C@@](Nc2cccc(Cl)c2)(C(=O)O)CC3)c1` (single isomer, unassigned) [Example 348, (1r,4r)-4-(3-chloroanilino)-2′-(3-chloro-5-methoxyphenyl)-2′,3′-dihydrospiro[cyclohexane-1,1′-indene]-4-carboxylic acid] reads 10600 nM. The result for `COc1ccc2c(c1)[C@]1(CC2)CC[C@@](Nc2cccc(Br)c2)(C(=O)O)CC1` [Example 62, (1s,4r)-4-(3-bromoanilino)-6′-methoxy-2′,3′-dihydrospiro[cyclohexane-1,1′-indene]-4-carboxylic acid] reads 43500 nM. With `O=C(O)[C@]1(Nc2cccc(Cl)c2)CC[C@]2(CC1)C(c1ccc(Oc3ccncc3)cc1)=Cc1ccccc12` [Example 342, (1s,4s)-4-(3-chloroanilino)-2′-{4-[(pyridin-4-yl)oxy]phenyl}spiro[cyclohexane-1,1′-indene]-4-carboxylic acid], the inhibition constant Ki is 785 nM. The result for `Cc1ccc(S(=O)(=O)N2Cc3ccccc3C23CCC(Nc2cccc(Cl)c2)(C(=O)O)CC3)cc1` (single isomer, unassigned) [Example 29, 4-(3-chloroanilino)-2′-(4-methylbenzene-1-sulfonyl)-2′,3′-dihydrospiro[cyclohexane-1,1′-isoindole]-4-carboxylic acid] reads 15800 nM; that for `O=C(O)[C@]1(Nc2cccc(Cl)c2)CC[C@]2(CC1)C(COCCc1ccccc1F)=Cc1ccccc12` [Example 410, (1s,4s)-4-(3-chloroanilino)-2′-{[2-(2-fluorophenyl)ethoxy]methyl}spiro[cyclohexane-1,1′-indene]-4-carboxylic acid], 550 nM; that for `CN1CCN(CCCC2Cc3ccccc3[C@]23CC[C@@](Nc2cccc(Cl)c2)(C(=O)O)CC3)CC1=O` (stereo partly drawn) [Example 198, (1r,4r)-4-(3-chloroanilino)-2′-[3-(4-methyl-3-oxopiperazin-1-yl)propyl]-2′,3′-dihydrospiro[cyclohexane-1,1′-indene]-4-carboxylic acid], 7480 nM. Consider `O=C(O)[C@]1(Nc2cccc(Cl)c2)CC[C@]2(CC1)C(c1cccc3ccoc13)=Cc1ccccc12` [Example 266, (1s,4s)-2′-(1-benzofuran-7-yl)-4-(3-chloroanilino)spiro[cyclohexane-1,1′-indene]-4-carboxylic acid], for which the Ki is 593 nM. With `O=C(O)[C@]1(Nc2cccc(Cl)c2)CC[C@@]2(CC1)c1ccccc1C[C@H]2c1ccc(-c2ccccc2)o1` [Example 356, (1r,2′R,4R)-4-(3-chloroanilino)-2′-(5-phenylfuran-2-yl)-2′,3′-dihydrospiro[cyclohexane-1,1′-indene]-4-carboxylic acid] the figure was 476 nM.

For the compound `O=C(O)[C@]1(Nc2cccc(Cl)c2)CC[C@@]2(CC1)c1ccccc1CC2CCCOc1ccnc2ccoc12` (stereo partly drawn) [Example 447, (1r,4r)-4-(3-chloroanilino)-2′-{3-[(furo[3,2-b]pyridin-7-yl)oxy]propyl}-2′,3′-dihydrospiro[cyclohexane-1,1′-indene]-4-carboxylic acid], the Ki is 127 nM. Take `O=C(O)[C@]1(Nc2cccc(Cl)c2)CC[C@]2(CC1)C(c1cccc(Oc3ccccc3)c1)=Cc1ccccc12` [Example 300, (1s,4s)-4-(3-chloroanilino)-2′-(3-phenoxyphenyl)spiro[cyclohexane-1,1′-indene]-4-carboxylic acid]: the inhibitory constant (Ki) was 174 nM. The result for `O=C(O)[C@]1(Nc2cccc(Cl)c2)CC[C@@]2(CC1)c1ccccc1CC2c1ccc(OCc2ccccc2)cc1` (single isomer, unassigned) [Example 352, (1r,4r)-2′-[4-(benzyloxy)phenyl]-4-(3-chloroanilino)-2′,3′-dihydrospiro[cyclohexane-1,1′-indene]-4-carboxylic acid] reads 802 nM; that for `O=C(O)[C@]1(Nc2cccc(Cl)c2)CC[C@]2(CC1)C(COCc1ccccc1)=Cc1ccccc12` [Example 179, (1s,4s)-2′-[(benzyloxy)methyl]-4-(3-chloroanilino)spiro[cyclohexane-1,1′-indene]-4-carboxylic acid], 506 nM.
